Experimental data: US20060234997A1, “Tetrahydro-pyridoazepin-8-ones and related compounds for the treatment of schizophrenia” (WARNER-LAMBERT COMPANY LLC, priority 2005, published 2006)
Where a name gives a salt, the structure may show the parent alone. Marks after values point to notes of the source that are not given here.

Assays:
[1] = biological target: T1, Dopamine D2 receptor (hD2L) (Homo sapiens, UniProt P14416); assay: Dopamine D2 Receptor Binding Assay ([3H]spiperone, CHO-hD2L membranes); conditions: [3H]spiperone 0.4 nM, membrane preparation from CHO-hD2L cells
T1 construct: expressed in transfected cells; host or cells: CHO cells (CHO-hD2L)
T1 sequence (P14416 whole entry): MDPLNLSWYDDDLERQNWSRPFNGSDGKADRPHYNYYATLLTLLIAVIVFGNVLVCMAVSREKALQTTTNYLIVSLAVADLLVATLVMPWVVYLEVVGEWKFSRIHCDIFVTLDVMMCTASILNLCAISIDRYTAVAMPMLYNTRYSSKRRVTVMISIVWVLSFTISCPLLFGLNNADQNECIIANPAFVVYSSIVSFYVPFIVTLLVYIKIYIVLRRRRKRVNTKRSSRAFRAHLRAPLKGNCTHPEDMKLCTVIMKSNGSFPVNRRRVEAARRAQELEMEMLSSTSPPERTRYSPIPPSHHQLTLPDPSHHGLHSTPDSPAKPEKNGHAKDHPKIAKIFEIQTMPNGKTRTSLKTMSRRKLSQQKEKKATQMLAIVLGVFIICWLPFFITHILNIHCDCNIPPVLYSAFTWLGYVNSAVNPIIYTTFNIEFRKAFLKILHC
Text: The ability of the novel compounds of this invention to bind to the dopamine D2 receptor can be determined using conventional radioligand receptor binding assays. All receptors can be heterologously expressed in cell lines and binding assays can be conducted in membrane preparations from the cell lines using procedures outlined below. IC50 concentrations can be determined by nonlinear regression of concentration-dependent reduction in specific binding. The Cheng-Prussoff equation can be used to convert the IC50 to Ki concentrations.
[^3H]Spiperone binding to a membrane preparation from CHO-hD2L cells was carried out in 250 μl of 50 mM Tris-HCl buffer containing 100 mM NaCl, 1 mM MgCl2 and 1% DMSO at pH 7.4. Duplicate samples containing (in order of addition) the test compounds, 0.4 nM [^3H]spiperone and approximately 12 μg protein were incubated for 120 minutes at room temperature. Bound radioligand was separated by rapid filtration under reduced pressure through Whatman GF/B glass fiber filters previously treated with 0.3% polyethyleneimine. Radioactivity retained on the filter is determined by liquid scintillation spectrophotometry.

[2] = test system: spontaneous locomotor activity in rats; assay: Spontaneous Locomotor Activity Inhibition Test; type: in vivo, rat; conditions: 60 min after dosing, recorded 1 hour, mean ± SEM
Text: Potential therapeutic effects of 2-{4-[4-(7-Fluoro-naphthalen-1-yl)-piperazin-1-yl]-butoxy}-5,6,7,9-tetrahydro-1,7,9-triaza-benzocyclohepten-8-one (hereinafter the “test compound”) were investigated in a spontaneous locomotor activity inhibition test in rats, a behavioral test predictive of antipsychotic activity. (A. E. Corbin, et. al.: PD 158771, a potential antipsychotic agent with D2/D3 partial agonist and 5-HT1A agonist actions. II. Prelinical behavioral effects. Neuropharmacology 39: 1211-1221 (2000)) The testing was performed using 16-Beam Digiscan Animal Activity Monitors (Accuscan Electronics, Columbus, Ohio). Each test chamber consisted of a PLEXIGLAS® box measuring 16×16 inches. These boxes were housed inside stainless steel, ventilated sound-attenuating chambers (SACs). Lights inside the SACs were off. Male Sprague-Dawley rats (Harlan), weighing 180 to 200 g at the time of testing, were used. Rats were provided with food and water ad libitum, but were food deprived for 24 hours before testing. Rats were randomly assigned to vehicle or drug treatment groups, and were tested one per chamber. On the test day, rats were removed from the housing room and brought to the test room, where they were placed into PLEXIGLAS® isolator cages on corncob bedding, 4 rats per cage. Rats were dosed orally (PO) with the test compound or vehicle, and then returned to the isolators. After a 60-minute absorption period, each rat was placed into the test chamber, the chamber door closed, and recording of locomotor activity begun. Locomotor activity was recorded for 1 hour, in 5-minute blocks. The test compound was suspended in 1% cremophor EL, 1% HCl 1N, and 0.5% methocel in water. The test compound or the vehicle was administered in a volume of 5 mL/kg. Doses are expressed as the active moiety (ie, base). Locomotor activity was measured as centimeters traveled and expressed as percent inhibition from vehicle control. Statistical analysis was performed using a one-way ANOVA followed by a post hoc Dunnett's test. Data from the vehicle-treated control groups from each experiment were compared using a one-way ANOVA.

| Compound | melting point | Ki [1] | also measured |
| --- | --- | --- | --- |
| O=C1NCCc2ccc(OCCCN3CCN(c4cccc(Cl)c4Cl)CC3)cc2N1 [Example 28, 8-{3-[4-(2,3-Dichlorophenyl)piperazin-1-yl]propoxy}-1,3,4,5-tetrahydrobenzo[d][1,3]diazepin-2-one] | 183 to 184 °C |  |  |
| O=C1NCCc2ccc(OCCCCN3CCN(c4cccc5c4OCCC5)CC3)nc2N1 (as salt: HCl) [Example 17, 2-[4-(4-Chroman-8-yl-piperazin-1-yl)-butoxy]-5,6,7,9-tetrahydro-1,7,9-triaza-benzocyclohepten-8-one] | 154 to 156 °C |  |  |
| CC1(C)CNC(=O)Nc2cc(CCCCCN3CCN(c4cccc(Cl)c4Cl)CC3)ccc21 [Example 67, 8-{5-[4-(2,3-Dichlorophenyl)piperazin-1-yl]pentyl}-5,5-dimethyl-1,3,4,5-tetrahydro-benzo[d][1,3]diazepin-2-one Methanesulfonic Acid] | 215 to 218 °C | 25 nM |  |
| O=C1NCCc2ccc(OCCCCN3CCN(c4cccc5c4OCCCO5)CC3)nc2N1 [Example 20, 2-{4-[4-(3,4-Dihydro-2H-benzo[b][1,4]dioxepin-6-yl)-piperazin-1-yl]-butoxy}-5,6,7,9-tetrahydro-1,7,9-triaza-benzocyclohepten-8-one] | 78 to 79 °C | 1 nM |  |
| CC1(C)CCc2ccc(OCCCCN3CCN(c4cccc(Cl)c4Cl)CC3)cc2NC1=O [Example 57, 8-{4-[4-(2,3-Dichlorophenyl)piperazin-1-yl]butoxy}-3,3-dimethyl-1,3,4,5-tetrahydrobenzo[b]azepin-2-one] | 110 to 112 °C |  |  |
| CN1CCc2ccc(OCCCCN3CCN(c4cccc(Cl)c4Cl)CC3)cc2NC1=O [Example 25, 8-{4-[4-(2,3-Dichlorophenyl)piperazin-1-yl]butoxy}-3-methyl-1,3,4,5-tetrahydro-benzo[d][1,3]diazepin-2-one] | 139 to 140 °C |  |  |
| CC1(C)CCC(=O)Nc2cc(OCCCN3CCN(c4cccc(Cl)c4Cl)CC3)ccc21 [Example 53, 8-{3-[4-(2,3-Dichlorophenyl)piperazin-1-yl]-propoxy}-5,5-dimethyl-1,3,4,5-tetrahydrobenzo[b]azepin-2-one] | 162 to 164 °C |  |  |
| O=C1NCCc2ccc(OCCCCN3CCN(c4cccc5ccccc45)CC3)nc2N1 (as salt: HCl) [Example 15, 2-[4-(4-Naphthalen-1-yl-piperazin-1-yl)-butoxy]-5,6,7,9-tetrahydro-1,7,9-triaza-benzocyclohepten-8-one] | 188 to 190 °C |  |  |
| O=C1NCCc2ccc(CCCCCN3CCN(c4cccc(Cl)c4Cl)CC3)cc2N1 [Example 65] | 159 to 161 °C | 4.47 nM |  |
| O=C1NCCc2ccc(OCCCCN3CCN(c4cccc5c4CCCC5)CC3)nc2N1 (as salt: HCl) [Example 16, 2-{4-[4-(5,6,7,8-Tetrahydro-naphthalen-1-yl)-piperazin-1-yl]-butoxy}-5,6,7,9-tetrahydro-1,7,9-triaza-benzocyclohepten-8-one] | 185 to 186 °C |  |  |
| O=C1NCCc2ccc(OCCCCN3CCN(c4cccc5c4CCC5)CC3)nc2N1 [Example 13, 2-[4-(4-Indan-4-yl-piperazin-1-yl)-butoxy]-5,6,7,9-tetrahydro-1,7,9-triaza-benzocyclohepten-8-one] | 70 to 72 °C | 0.59 nM |  |
| O=C1NCCc2ccc(OCCCCN3CCN(c4cccc5ccc(F)cc45)CC3)nc2N1 (as salt: HCl) [Example 18, 2-{4-[4-(7-Fluoro-naphthalen-1-yl)-piperazin-1-yl]-butoxy}-5,6,7,9-tetrahydro-1,7,9-triaza-benzocyclohepten-8-one] | 234 °C |  |  |
| O=C1NCCc2ccc(/C=C/CCCN3CCN(c4cccc(Cl)c4Cl)CC3)cc2N1 [Example 64] | 219 to 220 °C | 9.49 nM |  |
| CC1(C)CCC(=O)Nc2cc(/C=C/CCCN3CCN(c4cccc(Cl)c4Cl)CC3)ccc21 [Example 69] | 108 to 109 °C | 70.9 nM |  |
| O=C1NCCc2ccc(OCCCCN3CCN(c4cccc(Cl)c4Cl)CC3)nc2N1 (as salt: HCl) [Example 14, 2-{4-[4-(2,3-Dichloro-phenyl)-piperazin-1-yl]-butoxy}-5,6,7,9-tetrahydro-1,7,9-triaza-benzocyclohepten-8-one] | 197 to 199 °C |  |  |
| CC1(C)CCC(=O)Nc2cc(OCCCCCN3CCN(c4cccc(Cl)c4Cl)CC3)ccc21 [Example 55, 8-{5-[4-(2,3-Dichlorophenyl)piperazin-1-yl]-pentyloxy}-5,5-dimethyl-1,3,4,5-tetrahydrobenzo[b]azepin-2-one] | 128 to 130 °C |  |  |
| CC1(C)CCC(=O)Nc2cc(CCCCCN3CCN(c4cccc(Cl)c4Cl)CC3)ccc21 [Example 70, 8-{5-[4-(2,3-Dichlorophenyl)piperazin-1-yl]pentyl}-5,5-dimethyl-1,3,4,5-tetrahydrobenzo[b]azepin-2-one Methanesulfonic Acid] | 168 to 170 °C | 56.5 nM |  |
| O=C1NCCc2ccc(OCCCCN3CCN(c4cccc(C5CC5)n4)CC3)cc2N1 [Example 37] | 155 to 156 °C | 1.81 nM |  |
| O=C1NCCc2ccc(OCCCCN3CCN(c4cccc(Cl)c4Cl)CC3)cc2N1 [Example 29, 8-{4-[4-(2,3-Dichlorophenyl)piperazin-1-yl]butoxy}-1,3,4,5-tetrahydrobenzo[d][1,3]diazepin-2-one] | 185 to 186 °C |  |  |
| O=C1NCCc2ccc(OCCCCN3CCN(c4cccc5c4OCC5)CC3)nc2N1 [Example 19, 2-{4-[4-(2,3-Dihydro-benzofuran-7-yl)-piperazin-1-yl]-butoxy}-5,6,7,9-tetrahydro-1,7,9-triaza-benzocyclohepten-8-one] | 72 to 73 °C | 0.4 nM |  |
| CC1(C)CCC(=O)Nc2cc(OCCCCN3CCN(c4cccc(Cl)c4Cl)CC3)ccc21 [Example 54, 8-{4-[4-(2,3-Dichlorophenyl)piperazin-1-yl]-butoxy}-5,5-dimethyl-1,3,4,5-tetrahydrobenzo[b]azepin-2-one] | 106 to 108 °C |  |  |
| O=C1NCCc2ccc(OCCCCN3CCN(c4cccc5ccc(F)cc45)CC3)nc2N1 [Example 18, 2-{4-[4-(7-Fluoro-naphthalen-1-yl)-piperazin-1-yl]-butoxy}-5,6,7,9-tetrahydro-1,7,9-triaza-benzocyclohepten-8-one] |  | 1.79 nM | Percent Decrease from Control (locomotor activity) ([2]; 0.1 mg/kg PO): 9.0 ± 37.9^c; Percent Decrease from Control (locomotor activity) ([2]; 0.3 mg/kg PO): 38.3 ± 47.2^bd; Percent Decrease from Control (locomotor activity) ([2]; 1 mg/kg PO): 53.7 ± 4.8^bd; Percent Decrease from Control (locomotor activity) ([2]; 3 mg/kg PO): 75.4 ± 3.5^cd |
